# Where “and” joins values, the source holds several entries; their conditions need not be identical. Equal entries are not always repeated. Where two headings read alike, the source gives them in different places. Ends that are not written are not given here.
# Tests used:
# intracerebral RG2 tumors = experiment: In vivo BTB permeability (Ki by quantitative autoradiography) in RG2 tumor-bearing rats; design: species or system rat; details: data not shown
# KATP channels = experiment: Membrane potential assay of KATP channel activity; assay type: cell-based, human; details: RBEC, HBMVEC, RG2 and GBM cells
# Experimental: Functional activities of putative KATP channels in HBMVEC and GBM cells were measured by detecting changes in voltage across the cell membrane as described earlier (Ningarsj, N. S., Rao, M., Hashizume, K., Asotra, K., and Black, K. L. Regulation of blood-brain tumor barrier permeability by calcium-activated potassium channels J. Pharmacol. Exp. Ther., 301:838-851, 2002). A membrane potential assay kit (Molecular Devices, Sunnyvale, Calif.) provided a fast, simple and consistent mix-and-read procedure. In brief, HBMVEC and GBM cells obtained from cell passages 2-5 was suspended in 5 ml of growth medium. In two separate experiments, the cell density was adjusted to 1×10^3 cells/well and coated in sterile, clear bottom, blank 96-well plates (Corning, Inc., Acton, Mass.), pre-coated with poly L-Lysine, and allowed to achieve a monolayer within 24 h. The monolayer cells were incubated with the membrane potential assay kit reagents for 30 min and read directly by FLEXstation. The anionic pchemiometric dye that traverses between cells and the extracellular solution in a membrane potential-dependent manner serves as an indicator of vasomodulator-induced voltage changes across the cell membrane. […] Additionally, the effects of the optimum dose (10 μM) of MS and glibenclamide (100 nM) on KATP channels activity in HBMVEC and GBM cells were determined.
# intracranial RG2 tumors = experiment: Survival study, rats with intracranial RG2 tumors; assay type: in vivo, rat
# Experimental: Wistar rats with implanted intracranial tumors were used to study the effect of MS on increased carboplatin delivery and survival. RG2 cells (1×10^5) were implanted intracranially to form a tumor (2 mm in size) in rats within a week. After a week, rats were given saline, carboplatin (5 mg/kg) or carboplatin after 15 min of MS (30 μg/kg/min for 15 min) infusion through an exteriorized catheter once a day for three consecutive days. The rats were carefully monitored for mortality and clinical signs due to brain tumor growth for 90 days or until death, whichever came first. Brains of dead, moribund or those rats that survived beyond 90 days were removed, frozen and cryosectioned for histological evaluation, in order to compare tumor volumes between treated and untreated groups. Kaplan-Meier analysis was performed to determine the statistical significance of the results.
# [1] = cited from earlier work
# soluble guanylyl cyclase = molecular target: T1, soluble guanylyl cyclase (Bos taurus, UniProt P16068+P19687); details: cited from earlier work
# T1 sequence (P16068 1-619): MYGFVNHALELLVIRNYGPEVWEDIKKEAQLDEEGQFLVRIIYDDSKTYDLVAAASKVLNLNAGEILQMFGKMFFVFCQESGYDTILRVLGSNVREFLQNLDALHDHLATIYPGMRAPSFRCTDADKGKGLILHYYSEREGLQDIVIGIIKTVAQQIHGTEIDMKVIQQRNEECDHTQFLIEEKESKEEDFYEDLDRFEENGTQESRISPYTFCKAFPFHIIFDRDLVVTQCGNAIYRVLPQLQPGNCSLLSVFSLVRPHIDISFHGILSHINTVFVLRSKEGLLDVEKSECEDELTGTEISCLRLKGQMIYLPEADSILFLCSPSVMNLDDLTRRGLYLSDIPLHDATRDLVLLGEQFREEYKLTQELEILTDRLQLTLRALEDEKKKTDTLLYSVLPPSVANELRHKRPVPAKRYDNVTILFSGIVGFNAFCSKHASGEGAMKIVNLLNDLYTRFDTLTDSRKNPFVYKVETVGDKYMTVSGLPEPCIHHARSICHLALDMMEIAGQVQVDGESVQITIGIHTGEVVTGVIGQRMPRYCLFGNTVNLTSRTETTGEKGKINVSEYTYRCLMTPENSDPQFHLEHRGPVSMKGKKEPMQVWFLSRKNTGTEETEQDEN
# T1 sequence (P19687 1-691): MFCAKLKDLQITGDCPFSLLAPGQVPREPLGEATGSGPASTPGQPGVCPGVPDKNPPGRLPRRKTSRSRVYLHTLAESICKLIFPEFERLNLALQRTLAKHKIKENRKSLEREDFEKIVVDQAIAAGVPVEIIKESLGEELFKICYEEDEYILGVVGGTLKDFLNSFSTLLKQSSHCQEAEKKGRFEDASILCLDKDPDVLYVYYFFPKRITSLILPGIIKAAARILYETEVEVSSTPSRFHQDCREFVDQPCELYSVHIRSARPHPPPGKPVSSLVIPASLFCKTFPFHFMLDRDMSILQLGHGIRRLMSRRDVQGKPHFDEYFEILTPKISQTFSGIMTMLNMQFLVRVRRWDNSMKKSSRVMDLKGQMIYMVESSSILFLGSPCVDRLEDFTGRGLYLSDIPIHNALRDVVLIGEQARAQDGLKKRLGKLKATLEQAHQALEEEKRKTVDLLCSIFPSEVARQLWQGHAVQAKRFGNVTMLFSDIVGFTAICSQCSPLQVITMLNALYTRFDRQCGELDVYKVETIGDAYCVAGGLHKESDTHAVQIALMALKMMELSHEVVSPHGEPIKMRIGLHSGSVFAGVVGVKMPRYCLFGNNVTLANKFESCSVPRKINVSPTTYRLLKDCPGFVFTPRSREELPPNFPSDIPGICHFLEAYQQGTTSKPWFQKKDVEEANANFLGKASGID
# [2] = cited from earlier work; remark: listed apart in the source
# [3] = tested on: intracranial human glial tumors; experiment: Survival study, nude mice with intracranial human glial tumors; assay type: in vivo, mouse; details: i.v., three consecutive doses for three days
# Experimental: GBM-xenograft rat and mouse models were developed by intracranially implanting primary GBM cells isolated from patient brain tumor tissue. […] To investigate whether MS administration by intracarotid (i.c.) and intravenous (i.v.) routes, increases BTB permeability to different tracers, and enhances delivery to brain tumor, permeability studies were performed.
# Nude mice were intracranially implanted with cells. The tumor was allowed to grow for 7 days before treatment was initiated.
molecule,measurement,setting,value
COc1ccc(Cl)cc1C(=O)NCCc1ccc(S(=O)(=O)NC(=O)NC2CCCCC2)cc1 [glibenclamide],"BBB or BTB permeability, glibenclamide infused alone or prior to MS",intracerebral RG2 tumors,did not affect BBB or BTB permeability
same,Membrane potential dye fluorescence intensity,KATP channels,reversed
N.N.O=C([O-])C1(C(=O)[O-])CCC1.[Pt+2] [carboplatin],Mean survival,"intracranial RG2 tumors; RG2 tumor rats, i.c. once a day for three days, carboplatin 5 mg/kg, MS 30 μg/kg/min for 15 min",55.46 ± 5.71 days
same,Mean tumor size,intracranial RG2 tumors; coronal brain sections,5.30±1.9 mm^2 and 5.30±1.2 mm^2
"O=c1[nH]c2cc(C(F)(F)F)ccc2n1-c1cc(C(F)(F)F)ccc1O [NS-1619, 1,3-dihydro-1-[2-hydroxy-5-(trifluoromethyl)phenyl]-5-(trifluoromethyl)-2H-benzimidazol-2-one]",Effect on CBF in tumor and normal brain,[1]; i.c. infusion of low doses,did not alter CBF
"[N]=O [NO, Nitric oxide]",Increase of vMax of sGC,soluble guanylyl cyclase,100-200 fold
"CCCN(CCCN)N(O)N=O [PAPA/NO, 3-(2-hydroxy-2-nitroso-1-propylhydrazino)-1-propanamine]",Half-life (t1/2) of NO donor,[2],about 15 minutes
"CC(=O)NC(C(=O)O)C(C)(C)SN=O (racemic) [SNAP, S-nitroso-N-acetyl-D,L-penicillamine]",Half-life (t1/2) of NO donor,[2],1980 to 2460 min
"NCCN(CCN)N(O)N=O [DETA/NO, 2,2′-hydroxynitrosohydrazino]bis-ethanamine]",Half-life (t1/2) of NO donor,[2],about 20 hours
"NCCCNCCCCN(CCCN)N(O)N=O [SPER/NO, N-(4-[1-(3-aminopropyl)-2-hydroxy-2-nitroso-hydrazino]-butyl)-1,3-propanediamine]",Half-life (t1/2) of NO donor,[2],34 to 40 min
"[C-]#[O+] [CO, Carbon monoxide]",Increase in soluble guanylyl cyclase activity,soluble guanylyl cyclase; in the presence of YC-1,> 100 fold
RPPGFSPFR [BK],Effect on CBF in tumor and normal brain,"[1]; rat, in vivo",did not alter CBF
"CCN(CC)N(O)N=O.CCNCC [DEA/NO, N-ethylethanamine: 1,1-diethyl-2-hydroxy-2-nitrosohydrazine (1:1)]",Half-life (t1/2) of NO donor,[2],2 to 4 min
Cn1nnc2c(C(N)=O)ncn2c1=O [temodor],Mean survival,[3],25.5 ± 6.3 days
